ChEMBL document CHEMBL3832761, “MMV Pathogen Box Bioactivity Data” (2017)
In brackets after ≈: the same amount, converted by molar mass.

Columns and labels:
Assay type in all cases: functional
[1] = test system: Mycobacterium tuberculosis; assay: AntiMycobacterium tuberculosis activity 1-week 7H9/glucose/BSA/Tx MIC (uM); details: 168 h
[2] = test system: Mycobacterium tuberculosis; assay: AntiMycobacterium tuberculosis activity 2-week Alamar Blue 7H9/cholesterol/BSA/Tx MIC (uM); details: 336 h
[3] = test system: Mycobacterium tuberculosis; assay: (§1) AntiMycobacterium tuberculosis activity day 10 in 7H9/2.5mM butyrate/pH6/0.1mM nitrite MIC90 (uM); details: 240 h
[4] = test system: Mycobacterium tuberculosis; assay: AntiMycobacterium tuberculosis activity Non-Replicating form: Average MIC90 (uM)
[5] = test system: Mycobacterium tuberculosis; assay: AntiMycobacterium tuberculosis activity day 21 MIC99 in 7H9/2.5mM butyrate/pH6/0.1mM nitrite MIC99 (uM); details: 504 h
[6] = test system: Mycobacterium tuberculosis; assay: AntiMycobacterium tuberculosis activity 2-week 7H9/DPPC/cholesterol/BSA/Tx MIC (uM); details: 336 h
[7] = test system: Mycobacterium tuberculosis; assay: AntiMycobacterium tuberculosis activity 2-week 7H9/ADC/Tw MIC (uM); details: 336 h
HepG2 = assay: HepG2 CC50 (uM) Cytotoxicity; details: Homo sapiens
[8] = test system: Mycobacterium tuberculosis; assay: AntiMycobacterium tuberculosis activity 1-week 7H9/ADC/Tw MIC (uM); details: 168 h
[9] = test system: Mycobacterium tuberculosis; assay: AntiMycobacterium tuberculosis activity 1-week GAST/Fe MIC (uM); details: 168 h
[10] = test system: Mycobacterium tuberculosis; assay: AntiMycobacterium tuberculosis activity 1-week 7H9/DPPC/cholesterol/BSA/Tx MIC (uM); details: 168 h
[11] = test system: Mycobacterium tuberculosis; assay: AntiMycobacterium tuberculosis activity 2-week 7H9/glucose/BSA/Tx MIC (uM); details: 336 h
[12] = test system: Mycobacterium tuberculosis; assay: AntiMycobacterium tuberculosis activity 1-week 7H9/cholesterol/BSA/Tx MIC (uM); details: 168 h
[13] = test system: Mycobacterium tuberculosis; assay: AntiMycobacterium tuberculosis activity day 21 in 7H9/2.5mM butyrate/pH6/0.1mM nitrite MIC90 (uM); details: 504 h
[14] = test system: Mycobacterium tuberculosis; assay: as §1; details: 240 h; remark: listed apart in the source
[15] = test system: Mycobacterium tuberculosis; assay: AntiMycobacterium tuberculosis activity Replicating form: Average MIC90 (uM)
[16] = test system: Mycobacterium tuberculosis; assay: AntiMycobacterium tuberculosis activity 2-week GAST/Fe MIC (uM); details: 336 h
[17] = test system: Mycobacterium tuberculosis; assay: AntiMycobacterium tuberculosis activity 2-week Alamar Blue 7H9/ADC/Tw MIC (uM); details: 336 h

Compound	MIC [1] [µM]	MIC [2] [µM]	MIC90 [3] [µM]	MIC90 [4] [µM]	MIC [5] [µM]	MIC [6] [µM]	MIC [7] [µM]	CC50 (HepG2) [µM]	MIC [8] [µM]	MIC [9] [µM]	MIC [10] [µM]	MIC [11] [µM]	MIC [12] [µM]	MIC90 [13] [µM]	MIC90 [14] [µM]	MIC90 [15] [µM]	MIC [16] [µM]	MIC [17] [µM]
O=C(NCc1ccoc1)N1CCN(Cc2ccc3c(c2)OCO3)CC1	37 (≈ 12.7 µg/mL)	2.3 (≈ 0.79 µg/mL)	6.25 (≈ 2.15 µg/mL)	57.1 (≈ 19.6 µg/mL)	25 (≈ 8.58 µg/mL)	25 (≈ 8.58 µg/mL)	> 50	> 100	> 50	0.39 (≈ 0.134 µg/mL)	4.7 (≈ 1.61 µg/mL)	> 50	3.13 (≈ 1.07 µg/mL)	25 (≈ 8.58 µg/mL)	6.25 (≈ 2.15 µg/mL)	> 100	0.78 (≈ 0.268 µg/mL)	6.25 (≈ 2.15 µg/mL)
COc1ccc(C2(C(=O)Nc3ccc(Br)cc3)CCCC2)cc1	12.5 (≈ 4.68 µg/mL)	12.5 (≈ 4.68 µg/mL)	> 50	46.5 (≈ 17.4 µg/mL)	50 (≈ 18.7 µg/mL)	9.4 (≈ 3.52 µg/mL)	12.5 (≈ 4.68 µg/mL)	> 100	19 (≈ 7.11 µg/mL)	19 (≈ 7.11 µg/mL)	12.5 (≈ 4.68 µg/mL)	12.5 (≈ 4.68 µg/mL)	9.4 (≈ 3.52 µg/mL)	50 (≈ 18.7 µg/mL)	50 (≈ 18.7 µg/mL)	26.5 (≈ 9.93 µg/mL)	19 (≈ 7.11 µg/mL)	12.5 (≈ 4.68 µg/mL)
Cc1cc(Cl)ccc1NC(=O)CCc1ccc(S(=O)(=O)NCC(C)C)cc1	4.7 (≈ 1.92 µg/mL)	6.25 (≈ 2.56 µg/mL)	> 50	13.4 (≈ 5.49 µg/mL)	50 (≈ 20.4 µg/mL)	3.13 (≈ 1.28 µg/mL)	6.25 (≈ 2.56 µg/mL)	> 100	4.7 (≈ 1.92 µg/mL)	2.3 (≈ 0.941 µg/mL)	3.13 (≈ 1.28 µg/mL)	6.25 (≈ 2.56 µg/mL)	3.13 (≈ 1.28 µg/mL)	25 (≈ 10.2 µg/mL)	> 50	14.4 (≈ 5.87 µg/mL)	2.3 (≈ 0.941 µg/mL)	6.25 (≈ 2.56 µg/mL)
O=C(NC1CCCCC1)N1CCN(Cc2ccc3c(c2)OCO3)CC1	> 50	12.5 (≈ 4.32 µg/mL)	> 50	> 100	50 (≈ 17.3 µg/mL)	50 (≈ 17.3 µg/mL)	> 50	> 100	> 50	0.78 (≈ 0.269 µg/mL)	9.4 (≈ 3.25 µg/mL)	> 50	6.25 (≈ 2.16 µg/mL)	50 (≈ 17.3 µg/mL)	> 50	> 100	1.2 (≈ 0.415 µg/mL)	12.5 (≈ 4.32 µg/mL)
COc1cccc(OCC(=O)c2ccc(Br)cc2)c1	19 (≈ 6.1 µg/mL)	50 (≈ 16.1 µg/mL)	25 (≈ 8.03 µg/mL)	> 100	50 (≈ 16.1 µg/mL)	50 (≈ 16.1 µg/mL)	50 (≈ 16.1 µg/mL)	> 100	19 (≈ 6.1 µg/mL)	9.4 (≈ 3.02 µg/mL)	19 (≈ 6.1 µg/mL)	50 (≈ 16.1 µg/mL)	12.5 (≈ 4.01 µg/mL)	25 (≈ 8.03 µg/mL)	12.5 (≈ 4.01 µg/mL)	> 100	9.4 (≈ 3.02 µg/mL)	25 (≈ 8.03 µg/mL)
Cc1ccc(NC(=O)CC2COc3ccccc3O2)cc1Cl (stereo unspecified)	19 (≈ 6.04 µg/mL)	25 (≈ 7.94 µg/mL)	> 50	56.9 (≈ 18.1 µg/mL)	> 50	37 (≈ 11.8 µg/mL)	50 (≈ 15.9 µg/mL)	66.7	37 (≈ 11.8 µg/mL)	9.4 (≈ 2.99 µg/mL)	19 (≈ 6.04 µg/mL)	25 (≈ 7.94 µg/mL)	19 (≈ 6.04 µg/mL)	50 (≈ 15.9 µg/mL)	50 (≈ 15.9 µg/mL)	53.8 (≈ 17.1 µg/mL)	12.5 (≈ 3.97 µg/mL)	50 (≈ 15.9 µg/mL)
COc1ccc(-c2nc(-c3cccc(NC(=O)Cc4ccc(F)cc4)c3)no2)cc1OC	0.2 (≈ 0.0867 µg/mL)	0.6 (≈ 0.26 µg/mL)	3.12 (≈ 1.35 µg/mL)	1.61 (≈ 0.698 µg/mL)	6.25 (≈ 2.71 µg/mL)	0.78 (≈ 0.338 µg/mL)	0.39 (≈ 0.169 µg/mL)	> 100	0.3 (≈ 0.13 µg/mL)	1.56 (≈ 0.676 µg/mL)	0.78 (≈ 0.338 µg/mL)	0.2 (≈ 0.0867 µg/mL)	0.6 (≈ 0.26 µg/mL)	6.25 (≈ 2.71 µg/mL)	3.12 (≈ 1.35 µg/mL)	0.39 (≈ 0.169 µg/mL)	1.56 (≈ 0.676 µg/mL)	0.39 (≈ 0.169 µg/mL)
Cc1cc(C)c2cc(C(=O)NC3CCCCCCC3)[nH]c2c1	< 0.02	< 0.02	> 50	0.01 (≈ 0.00298 µg/mL)	> 50	< 0.02	0.02 (≈ 0.00597 µg/mL)	> 100	< 0.02	< 0.02	< 0.02	< 0.02	< 0.02	≤ 0.04	≤ 0.04	0.01 (≈ 0.00298 µg/mL)	< 0.02	0.02 (≈ 0.00597 µg/mL)
CC(C)(C)c1cnc(NC(=O)c2ccccc2O)s1	> 50	> 50	> 50	21 (≈ 5.81 µg/mL)	> 50	> 50	> 50	47.6	> 50	19 (≈ 5.25 µg/mL)	> 50	> 50	> 50	50 (≈ 13.8 µg/mL)	50 (≈ 13.8 µg/mL)	81.9 (≈ 22.6 µg/mL)	25 (≈ 6.91 µg/mL)	> 50
N#Cc1ccc(-c2ccc(OCC(N)=O)cc2)cc1	25 (≈ 6.31 µg/mL)	≥ 50	> 50	13.7 (≈ 3.46 µg/mL)	> 50	50 (≈ 12.6 µg/mL)	> 50	> 100	37 (≈ 9.33 µg/mL)	4.7 (≈ 1.19 µg/mL)	12.5 (≈ 3.15 µg/mL)	50 (≈ 12.6 µg/mL)	12.5 (≈ 3.15 µg/mL)	25 (≈ 6.31 µg/mL)	25 (≈ 6.31 µg/mL)	23.2 (≈ 5.86 µg/mL)	4.7 (≈ 1.19 µg/mL)	50 (≈ 12.6 µg/mL)
CCCc1ccc(S(=O)(=O)Nc2ccc(CN3CCN(CC4CC4)CC3)cc2)cc1	9.4 (≈ 4.02 µg/mL)	6.25 (≈ 2.67 µg/mL)	> 50	47.4 (≈ 20.3 µg/mL)	> 50	6.25 (≈ 2.67 µg/mL)	19 (≈ 8.12 µg/mL)	17.7	19 (≈ 8.12 µg/mL)	12.5 (≈ 5.35 µg/mL)	4.7 (≈ 2.01 µg/mL)	9.4 (≈ 4.02 µg/mL)	6.25 (≈ 2.67 µg/mL)	50 (≈ 21.4 µg/mL)	50 (≈ 21.4 µg/mL)	18.7 (≈ 8.01 µg/mL)	12.5 (≈ 5.35 µg/mL)	19 (≈ 8.12 µg/mL)
CN1CCN(CCCOc2ncc(Nc3ncc(-c4ccc(C(F)(F)F)c(F)c4)nc3C(N)=O)cn2)CC1	1.2 (≈ 0.641 µg/mL)	0.6 (≈ 0.321 µg/mL)	12.5 (≈ 6.68 µg/mL)	3.1 (≈ 1.66 µg/mL)	12.5 (≈ 6.68 µg/mL)	0.6 (≈ 0.321 µg/mL)	1.56 (≈ 0.834 µg/mL)	3.9	1.2 (≈ 0.641 µg/mL)	1.56 (≈ 0.834 µg/mL)	0.2 (≈ 0.107 µg/mL)	1.56 (≈ 0.834 µg/mL)	0.39 (≈ 0.208 µg/mL)	1.5 (≈ 0.802 µg/mL)	0.78 (≈ 0.417 µg/mL)	3.46 (≈ 1.85 µg/mL)	1.56 (≈ 0.834 µg/mL)	1.56 (≈ 0.834 µg/mL)
